{"source": "patent EP4725956A1", "about": "“MODIFIED POLYPEPTIDE AND USE THEREOF IN FIELD OF ANALGESIA” (Nanjing Anji Biotechnology Co., Ltd., priority 2023, dated 2024)", "key": {"[1]": {"tested_on": "rat paclitaxel-induced chronic chemotherapy pain model", "assay": "Rat paclitaxel chemotherapy pain model, same dose (Example 5)", "assay_type": "in vivo", "procedure": "Male SPF (Specific Pathogen Free) SD rats weighing 180-200 g (Shanghai Institute of Planned Parenthood Research, Experimental Animal Department) were used. On the day of model induction, rats were weighed, and baseline mechanical pain thresholds were measured. Animals with large differences in body weight or pain threshold were excluded, and the remaining rats were subjected to the experimental protocol. Paclitaxel powder was dissolved in olive oil to 1 mg/mL. Each rat received an intraperitoneal injection of 2 mg/kg per dose. Four injections were administered on days 1, 3, 5, and 7. Rats in the negative control or vehicle control group received injections of the solvent used to dissolve paclitaxel. […] The blank group in Table 4 represents rats without pain modeling, and the model group represents rats with pain modeling but no drug treatment. On days 1, 3, 5, and 12, drugs were administered at fixed times. On days 1, 3, and 5, mechanical pain thresholds of the right hind paw at the corresponding time were measured at 1 h, 2.5 h, 4 h, and 5.5 h after dosing using a blunt probe. On day 12, mechanical pain thresholds were measured at 4 h and 7 h after dosing. […] AJ003-36 and AJ003-40 were thus identified as candidate molecules for further study. Paclitaxel is a widely used small-molecule chemotherapy drug that, while effective against tumors, can induce neuropathic pain in many cancer patients due to neurotoxicity. The chronic chemotherapy pain model induced in male SD rats via multiple low-dose intraperitoneal injections of paclitaxel simulates clinical chemotherapy-induced neuropathic pain. Using this model, the analgesic effects of five modified peptides, the parent peptide AJ003, and the positive control pregabalin were evaluated. […] Table 4 Dosing Scheme for Screening Analgesic Activity of Selected Modified Peptides at the Same Dose in the Paclitaxel Chemotherapy Pain Model"}, "α7 nAChR": {"biological_target": "α7 nAChR (Homo sapiens, UniProt P36544)", "assay": "BLI (biolayer interferometry) affinity of peptides to α7 nAChR", "assay_type": "binding", "set-up": "inferred from the 'similar' procedure on NTA sensors", "conditions": "NTA sensor, α7 nAChR 20 µg/mL, peptide 1.372-1000 nM in PBS", "in_short": "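Target protein immobilised on NTA biosensors from PBS at 5 µg/mL (α9) or 20 µg/mL (α7). Peptides run in PBS as threefold series from 1000 nM to 1.372 nM with a PBS blank, 5-minute association and 5-minute dissociation; KD from fitted ka and kd.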"}, "[2]": {"tested_on": "mouse diabetic neuropathic pain model", "assay": "Mouse diabetic neuropathic pain model (Example 10)", "assay_type": "in vivo", "procedure": "Except for the control group, the remaining male C57 mice (Hangzhou Ziyuan Experimental Animal Technology Co., Ltd.) were continuously fed a high-sugar, high-fat diet for approximately ten weeks. For the model group, mice were fasted overnight, and streptozotocin (STZ) (Sann Chemical Technology (Shanghai) Co., Ltd.) was dissolved in sodium citrate-citric acid buffer solution and intraperitoneally injected at a dose of 70 mg/kg. About two weeks after STZ injection, the mechanical pain threshold of mice was measured. Mice were placed on a perforated wire mesh for adaptation, and the plantar surface of the right hind paw was vertically stimulated with a blunt needle. Pain threshold data were collected using a biosignal acquisition system. Each mouse was measured three times, and the average value was calculated. Mice were then randomly assigned to groups based on their pain thresholds for drug administration.\nDay 1 of dosing: Drug administration was performed according to Table 9. Mechanical pain thresholds of the plantar surface were measured at 0 h, 2 h, 4 h, 6 h, and 8 h after administration."}, "[3]": {"tested_on": "rat paclitaxel-induced chronic chemotherapy pain model", "assay": "Rat paclitaxel chemotherapy pain model, different doses (Example 6)", "assay_type": "in vivo", "procedure": "Male SPF (Specific Pathogen Free) SD rats weighing 180-200 g (Shanghai Institute of Planned Parenthood Research, Experimental Animal Department) were purchased and allowed to acclimate for approximately one week. On the day of model induction, rats were weighed, and baseline mechanical pain thresholds were measured. Animals with large differences in body weight or pain threshold were excluded, and the remaining rats were subjected to the experimental protocol. Paclitaxel powder was dissolved in olive oil to 1 mg/mL. Each rat received an intraperitoneal injection of 2 mg/kg per dose. Four injections were administered on days 1, 3, 5, and 7. Rats in the negative control or vehicle control group received injections of the solvent used to dissolve paclitaxel. […] Starting from day 15 after model induction, drugs were administered daily for consecutive days. On days 1, 4, 7, 12, and 14 of treatment, mechanical pain thresholds of the right hind paw at the corresponding time were measured at 2 h, 4 h, 6 h, and 8 h after dosing using a blunt probe. […]. […] Table 5 Dosing Scheme for Screening Analgesic Activity of Selected Modified Peptides at Different Doses in the Paclitaxel Chemotherapy Pain Model"}}, "note": "Positions of bridges follow the written chain, without caps; N, C: chain ends. Non-standard residues stand in square brackets, D forms with d. Residues, ends and D or L forms follow the SMILES beside them. Bip = N[C@@H](Cc1ccc(-c2ccccc2)cc1)C(=O)O; Hyp = O=C(O)[C@@H]1C[C@@H](O)CN1; Nle = CCCC[C@H](N)C(=O)O; Orn = NCCC[C@H](N)C(=O)O; Aib = CC(C)(N)C(=O)O"}
{"smiles": "CCCC[C@H](NC(=O)[C@@H](NC(=O)[C@H]1CSSC[C@H](NC(=O)[C@H](CO)NC(=O)CN)C(=O)N[C@@H](CO)C(=O)N[C@H]([C@H](C)O)C(=O)N2C[C@H](O)C[C@H]2C(=O)N2C[C@H](O)C[C@H]2C(=O)NC(C)(C)C(=O)N1)C(C)C)C(=O)N[C@@H](Cc1ccc(-c2ccccc2)cc1)C(=O)N[C@@H](CCCN)C(N)=O", "note": "[AJ003-36, GSCS-(D-Thr)-Hyp-Hyp-Aib-(D-Cys)-V-Nle-Bip-Orn-NH2 (3,9 disulfide bond)] (H-GSCS[dT][Hyp][Hyp][Aib][dC]V[Nle][Bip][Orn]-NH2; disulfide 3-9)", "values": [{"measurement": "ranking among the five candidate modified peptides", "setting": "[1]; 1 mg/kg s.c.", "value": "top three analgesic candidates"}, {"measurement": "analgesic activity (mechanical pain threshold)", "setting": "[1]; 1 mg/kg s.c., day 12, 7 h after dosing", "value": "prolonged analgesic activity lasting up to 7 h"}, {"measurement": "analgesic efficacy compared with the positive control pregabalin", "setting": "[1]; peptide 1 mg/kg s.c. vs pregabalin 30 mg/kg oral gavage, overall", "value": "comparable in analgesic efficacy to pregabalin"}, {"measurement": "Kd", "setting": "α7 nAChR", "value": 40.8, "unit": "nM"}, {"measurement": "analgesic activity compared with the model group (mechanical pain threshold)", "setting": "[2]; Day 1 of dosing, 2 h and 4 h, 1 mg/kg s.c. (low dose)", "value": "significant analgesic activity"}, {"measurement": "analgesic activity compared with the model group (mechanical pain threshold)", "setting": "[2]; Day 1 of dosing, 2 h and 4 h, 2 mg/kg s.c. (AJ003; AJ003-36 medium dose)", "value": "significant analgesic activity"}, {"measurement": "analgesic activity compared with the model group (mechanical pain threshold)", "setting": "[2]; Day 1 of dosing, 2 h and 4 h, 3 mg/kg s.c. (high dose)", "value": "significant analgesic activity"}, {"measurement": "analgesic activity compared with the model group (mechanical pain threshold)", "setting": "[2]; Day 1 of dosing, 6 h and 8 h, 1 mg/kg s.c. (low dose)", "value": "significant analgesic activity"}, {"measurement": "analgesic activity compared with the model group (mechanical pain threshold)", "setting": "[2]; Day 1 of dosing, 6 h and 8 h, 2 mg/kg s.c. (AJ003; AJ003-36 medium dose)", "value": "significant analgesic activity"}, {"measurement": "analgesic activity compared with the model group (mechanical pain threshold)", "setting": "[2]; Day 1 of dosing, 6 h and 8 h, 3 mg/kg s.c. (high dose)", "value": "significant analgesic activity"}, {"measurement": "analgesic activity compared with the model group (mechanical pain threshold)", "setting": "[2]; Day 4 of dosing, 2 h and 4 h, 1 mg/kg s.c. (low dose)", "value": "significant analgesic activity"}, {"measurement": "analgesic activity compared with the model group (mechanical pain threshold)", "setting": "[2]; Day 4 of dosing, 2 h and 4 h, 2 mg/kg s.c. (AJ003; AJ003-36 medium dose)", "value": "significant analgesic activity"}, {"measurement": "analgesic activity compared with the model group (mechanical pain threshold)", "setting": "[2]; Day 4 of dosing, 2 h and 4 h, 3 mg/kg s.c. (high dose)", "value": "significant analgesic activity"}, {"measurement": "analgesic activity compared with the model group (mechanical pain threshold)", "setting": "[2]; Day 4 of dosing, 6 h and 8 h, 1 mg/kg s.c. (low dose)", "value": "significant analgesic activity"}, {"measurement": "analgesic activity compared with the model group (mechanical pain threshold)", "setting": "[2]; Day 4 of dosing, 6 h and 8 h, 2 mg/kg s.c. (AJ003; AJ003-36 medium dose)", "value": "significant analgesic activity"}, {"measurement": "analgesic activity compared with the model group (mechanical pain threshold)", "setting": "[2]; Day 4 of dosing, 6 h and 8 h, 3 mg/kg s.c. (high dose)", "value": "significant analgesic activity"}, {"measurement": "analgesic activity compared with the model group (mechanical pain threshold)", "setting": "[2]; Day 8 of dosing, 2 h and 4 h, 1 mg/kg s.c. (low dose)", "value": "significant analgesic activity"}, {"measurement": "analgesic activity compared with the model group (mechanical pain threshold)", "setting": "[2]; Day 8 of dosing, 2 h and 4 h, 2 mg/kg s.c. (AJ003; AJ003-36 medium dose)", "value": "significant analgesic activity"}, {"measurement": "analgesic activity compared with the model group (mechanical pain threshold)", "setting": "[2]; Day 8 of dosing, 2 h and 4 h, 3 mg/kg s.c. (high dose)", "value": "significant analgesic activity"}, {"measurement": "analgesic activity compared with the model group (mechanical pain threshold)", "setting": "[2]; Day 8 of dosing, 6 h and 8 h, 1 mg/kg s.c. (low dose)", "value": "no significant difference"}, {"measurement": "analgesic activity compared with the model group (mechanical pain threshold)", "setting": "[2]; Day 8 of dosing, 6 h and 8 h, 2 mg/kg s.c. (AJ003; AJ003-36 medium dose)", "value": "significant analgesic activity"}, {"measurement": "analgesic activity compared with the model group (mechanical pain threshold)", "setting": "[2]; Day 8 of dosing, 6 h and 8 h, 3 mg/kg s.c. (high dose)", "value": "significant analgesic activity"}, {"measurement": "analgesic activity compared with the model group (mechanical pain threshold)", "setting": "[2]; Day 14 of dosing, 2 h and 4 h, 1 mg/kg s.c. (low dose)", "value": "significant analgesic activity"}, {"measurement": "analgesic activity compared with the model group (mechanical pain threshold)", "setting": "[2]; Day 14 of dosing, 2 h and 4 h, 2 mg/kg s.c. (AJ003; AJ003-36 medium dose)", "value": "significant analgesic activity"}, {"measurement": "analgesic activity compared with the model group (mechanical pain threshold)", "setting": "[2]; Day 14 of dosing, 2 h and 4 h, 3 mg/kg s.c. (high dose)", "value": "significant analgesic activity"}, {"measurement": "analgesic activity compared with the model group (mechanical pain threshold)", "setting": "[2]; Day 14 of dosing, 6 h and 8 h, 1 mg/kg s.c. (low dose)", "value": "significant analgesic activity"}, {"measurement": "analgesic activity compared with the model group (mechanical pain threshold)", "setting": "[2]; Day 14 of dosing, 6 h and 8 h, 2 mg/kg s.c. (AJ003; AJ003-36 medium dose)", "value": "significant analgesic activity"}, {"measurement": "analgesic activity compared with the model group (mechanical pain threshold)", "setting": "[2]; Day 14 of dosing, 6 h and 8 h, 3 mg/kg s.c. (high dose)", "value": "significant analgesic activity"}, {"measurement": "analgesic activity compared with pregabalin", "setting": "[2]; high dose 3 mg/kg s.c. vs pregabalin 60 mg/kg oral, over four administrations", "value": "slightly superior analgesic activity"}, {"measurement": "analgesic activity compared with the positive control pregabalin", "setting": "[3]; high dose 1.5 mg/kg s.c. vs pregabalin 30 mg/kg oral gavage", "value": "slightly superior to the positive control pregabalin"}, {"measurement": "analgesic effect compared with the model group (mechanical pain threshold)", "setting": "[3]; high dose 1.5 mg/kg s.c., 8 h after dosing", "value": "remained significant"}, {"measurement": "analgesic activity compared with the parent peptide AJ003", "setting": "[3]; low dose 0.5 mg/kg s.c. vs AJ003 1 mg/kg s.c.", "value": "comparable to that of AJ003 at 1 mg/kg"}]}
